Reference: paper PMC12655719, “Evaluating the Effectiveness of Reference Solvent Solubility Calculations for Binary Mixtures Based on Pure Solvent Solubility: The Case of Phenolic Acids” (Molecules, 2025)

Test: Solubility determination of saturated solutions (shaking 24 h at 25 °C, filtration, HPLC/UPLC-UV quantification)
Assay type: physicochemical
Conditions: for log(x1)exp: 1,4-dioxane + Water, code 1 (this work)
Method: In the case of binary mixtures, the organic solvent was mixed with water in appropriate molar fractions. Water was also used as a single-component solvent. For each system, three replicate samples were prepared.
The prepared samples were placed in an Orbital Shaker ES-20/60 incubator from Biosan (Riga, Latvia) and shaken for 24 h at 25 °C. The temperature was maintained with an accuracy of ±0.1 °C. During the equilibration process, the samples were agitated at a rate of 60 rpm while being thermostated.
Following equilibration, the samples were filtered through PTFE syringe filters with a 0.22 µm pore size. To prevent precipitation during this step, all test tubes, syringes, and filters were preheated to the corresponding temperature of the solution. Subsequently, an aliquot of the filtrate was transferred to a vial for chromatographic analysis.
Prior to injection, samples were diluted with methanol and injected into a Luna C18 column (250 × 10 mm) equipped with a guard column, both from Phenomenex (Torrance, CA, USA). The injection volume was 100 µL, and the column temperature was maintained at 30 °C. The mobile phase consisted of 0.5% acetic acid (A) and acetonitrile (B), applied with a linear gradient at a flow rate of 5 mL/min: initially 2% B; 1–7 min, 2–50% B; 7–9 min, 50% B; 9–9.5 min, 50–2% B; and 9–18 min, 2% B. The UV absorbance was monitored in the range of 210–400 nm. The chromatographic system was operated with MassLynx 4.1 software (Waters, […], USA). Quantitative analysis was performed using the TargetLynx application at 293 nm. All samples were analyzed in triplicate (technical replicates).
The system included the Acquity Binary Solvent Manager, Acquity Sample Manager, and Acquity Column Manager (Waters, Milford, CT, USA). Prior to analysis, samples were diluted with methanol, and 0.3 µL was injected. Separation was performed on a ACQUITY UPLC CSH C18 column (1.7 µm, 2.1 × 30 mm, Waters, Milford, CT, USA) maintained at 40 °C. UV detection was carried out at 293 nm using a tunable dual-wavelength UV/Vis detector (TUV, Waters, Milford, CT, USA). […] Each sample was analyzed in three technical replicates.
To calculate mole fractions of the solutes, the density of each saturated solution was determined by weighing 1 mL of the sample using an analytical balance (RADWAG AS 110.R2 PLUS; Radwag, Radom, Poland).

log(x1)exp (x2* 0.00, x3* 1.00, T 25.0 °C): -4.023
log(x1)exp (x2* 0.10, x3* 0.90, T 25.0 °C): -2.614
log(x1)exp (x2* 0.20, x3* 0.80, T 25.0 °C): -1.897
log(x1)exp (x2* 0.30, x3* 0.70, T 25.0 °C): -1.603
log(x1)exp (x2* 0.40, x3* 0.60, T 25.0 °C): -1.455
x1 × 102 (mole fraction of solute) (1,4-dioxane-water, x2* = 0.0, 25 °C): 0.009 mole fraction × 102
x1 × 102 (mole fraction of solute) (1,4-dioxane-water, x2* = 0.1, 25 °C): 0.243 mole fraction × 102
x1 × 102 (mole fraction of solute) (1,4-dioxane-water, x2* = 0.2, 25 °C): 1.269 mole fraction × 102
x1 × 102 (mole fraction of solute) (1,4-dioxane-water, x2* = 0.3, 25 °C): 2.495 mole fraction × 102
x1 × 102 (mole fraction of solute) (1,4-dioxane-water, x2* = 0.4, 25 °C): 3.504 mole fraction × 102
x1 × 102 (mole fraction of solute) (1,4-dioxane-water, x2* = 0.5, 25 °C): 4.260 mole fraction × 102
x1 × 102 (mole fraction of solute) (1,4-dioxane-water, x2* = 0.6, 25 °C): 4.647 mole fraction × 102
x1 × 102 (mole fraction of solute) (1,4-dioxane-water, x2* = 0.7, 25 °C): 4.698 mole fraction × 102
x1 × 102 (mole fraction of solute) (1,4-dioxane-water, x2* = 0.8, 25 °C): 4.232 mole fraction × 102
x1 × 102 (mole fraction of solute) (1,4-dioxane-water, x2* = 0.9, 25 °C): 2.850 mole fraction × 102
x1 × 102 (mole fraction of solute) (1,4-dioxane-water, x2* = 1.0, 25 °C): 1.634 mole fraction × 102
mole fraction solubility (x1) (1,4-dioxane–water, x2* = 0.0 (pure water), 25 °C): 9.0 × 10^−5 mole fraction
mole fraction solubility (x1) (1,4-dioxane–water, x2* = 0.7, 25 °C): 4.698 × 10^−2 mole fraction
x1 × 102 (mole fraction of solute) (4-FM-water, x2* = 0.1, 25 °C): 0.785 mole fraction × 102
x1 × 102 (mole fraction of solute) (4-FM-water, x2* = 0.2, 25 °C): 2.306 mole fraction × 102
x1 × 102 (mole fraction of solute) (4-FM-water, x2* = 0.3, 25 °C): 4.043 mole fraction × 102
x1 × 102 (mole fraction of solute) (4-FM-water, x2* = 0.4, 25 °C): 6.072 mole fraction × 102
x1 × 102 (mole fraction of solute) (4-FM-water, x2* = 0.5, 25 °C): 7.935 mole fraction × 102
x1 × 102 (mole fraction of solute) (4-FM-water, x2* = 0.6, 25 °C): 10.036 mole fraction × 102
x1 × 102 (mole fraction of solute) (4-FM-water, x2* = 0.7, 25 °C): 11.977 mole fraction × 102
x1 × 102 (mole fraction of solute) (4-FM-water, x2* = 0.8, 25 °C): 13.855 mole fraction × 102
x1 × 102 (mole fraction of solute) (4-FM-water, x2* = 0.9, 25 °C): 15.930 mole fraction × 102
x1 × 102 (mole fraction of solute) (4-FM-water, x2* = 1.0, 25 °C): 17.932 mole fraction × 102
x1 × 102 (mole fraction of solute) (DMSO-water, x2* = 0.1, 25 °C): 0.209 mole fraction × 102
x1 × 102 (mole fraction of solute) (DMSO-water, x2* = 0.2, 25 °C): 1.527 mole fraction × 102
x1 × 102 (mole fraction of solute) (DMSO-water, x2* = 0.3, 25 °C): 4.718 mole fraction × 102
x1 × 102 (mole fraction of solute) (DMSO-water, x2* = 0.4, 25 °C): 11.316 mole fraction × 102
x1 × 102 (mole fraction of solute) (DMSO-water, x2* = 0.5, 25 °C): 20.824 mole fraction × 102
x1 × 102 (mole fraction of solute) (DMSO-water, x2* = 0.6, 25 °C): 28.915 mole fraction × 102
x1 × 102 (mole fraction of solute) (DMSO-water, x2* = 0.7, 25 °C): 33.598 mole fraction × 102
x1 × 102 (mole fraction of solute) (DMSO-water, x2* = 0.8, 25 °C): 34.931 mole fraction × 102
x1 × 102 (mole fraction of solute) (DMSO-water, x2* = 0.9, 25 °C): 31.904 mole fraction × 102
x1 × 102 (mole fraction of solute) (DMSO-water, x2* = 1.0, 25 °C): 22.675 mole fraction × 102
mole fraction solubility (x1) (DMSO–water, x2* = 0.8, 25 °C): 34.931 × 10^−2 mole fraction
mole fraction solubility (x1) (pure 1,4-dioxane (x2* = 1.0), 25 °C): 1.634 × 10^−2 mole fraction
mole fraction solubility (x1) (pure 4-FM (4-formylmorpholine, x2* = 1.0), 25 °C): 17.932 × 10^−2 mole fraction
mole fraction solubility (x1) (pure DMSO, 25 °C): 22.675 × 10^−2 mole fraction
SMILES: O=C(O)/C=C/c1ccc(O)c(O)c1 [caffeic acid, Caffeic acid]
